How the values were obtained:
[1] = Cmax in dog plasma at 5 mg/kg, po measured up to 24 hrs by LC-MS/MS analysis; format: ADME, organism-based, Canis lupus familiaris
[2] = Clearance in monkey plasma at 1 mg/kg, iv measured up to 24 hrs by LC-MS/MS analysis; format: ADME, organism-based, Macaca mulatta; settings: rhesus monkey
[3] = Tmax in mouse plasma at 2 mg/kg, iv measured up to 24 hrs by LC-MS/MS analysis; format: ADME, organism-based
DU-145 = test: cells; settings: Homo sapiens, DU-145, 72 h
Description: Antiproliferative activity against human DU-145 cells assessed as inhibition of cell growth incubated for 72 hrs by celltiter-glo luminescent cell viability assay

MOLM-13 = test: cells; settings: Homo sapiens, MOLM-13, 72 h
Description: Antiproliferative activity against human MOLM-13 cells assessed as inhibition of cell growth incubated for 72 hrs by celltiter-glo luminescent cell viability assay

NCI-H226 = test: cells; settings: Homo sapiens, NCI-H226, 72 h
Description: Antiproliferative activity against human NCI-H226 cells assessed as inhibition of cell growth incubated for 72 hrs by celltiter-glo luminescent cell viability assay

U-251 = test: cells; settings: Homo sapiens, U-251, 72 h
Description: Antiproliferative activity against human U-251 cells assessed as inhibition of cell growth incubated for 72 hrs by celltiter-glo luminescent cell viability assay

[4] = Tmax in mouse plasma at 10 mg/kg, po measured up to 24 hrs by LC-MS/MS analysis; format: ADME, organism-based
[5] = biological target: Proto-oncogene tyrosine-protein kinase receptor Ret (Homo sapiens, UniProt P07949, G691S); test: Inhibition of human RET G691S mutant by biochemical kinase binding assay
[6] = AUClast in rat plasma at 5 mg/kg, po measured up to 24 hrs by LC-MS/MS analysis; format: ADME, organism-based

Chain of Proto-oncogene tyrosine-protein kinase receptor Ret (P07949 29-1114 G691S limits assumed): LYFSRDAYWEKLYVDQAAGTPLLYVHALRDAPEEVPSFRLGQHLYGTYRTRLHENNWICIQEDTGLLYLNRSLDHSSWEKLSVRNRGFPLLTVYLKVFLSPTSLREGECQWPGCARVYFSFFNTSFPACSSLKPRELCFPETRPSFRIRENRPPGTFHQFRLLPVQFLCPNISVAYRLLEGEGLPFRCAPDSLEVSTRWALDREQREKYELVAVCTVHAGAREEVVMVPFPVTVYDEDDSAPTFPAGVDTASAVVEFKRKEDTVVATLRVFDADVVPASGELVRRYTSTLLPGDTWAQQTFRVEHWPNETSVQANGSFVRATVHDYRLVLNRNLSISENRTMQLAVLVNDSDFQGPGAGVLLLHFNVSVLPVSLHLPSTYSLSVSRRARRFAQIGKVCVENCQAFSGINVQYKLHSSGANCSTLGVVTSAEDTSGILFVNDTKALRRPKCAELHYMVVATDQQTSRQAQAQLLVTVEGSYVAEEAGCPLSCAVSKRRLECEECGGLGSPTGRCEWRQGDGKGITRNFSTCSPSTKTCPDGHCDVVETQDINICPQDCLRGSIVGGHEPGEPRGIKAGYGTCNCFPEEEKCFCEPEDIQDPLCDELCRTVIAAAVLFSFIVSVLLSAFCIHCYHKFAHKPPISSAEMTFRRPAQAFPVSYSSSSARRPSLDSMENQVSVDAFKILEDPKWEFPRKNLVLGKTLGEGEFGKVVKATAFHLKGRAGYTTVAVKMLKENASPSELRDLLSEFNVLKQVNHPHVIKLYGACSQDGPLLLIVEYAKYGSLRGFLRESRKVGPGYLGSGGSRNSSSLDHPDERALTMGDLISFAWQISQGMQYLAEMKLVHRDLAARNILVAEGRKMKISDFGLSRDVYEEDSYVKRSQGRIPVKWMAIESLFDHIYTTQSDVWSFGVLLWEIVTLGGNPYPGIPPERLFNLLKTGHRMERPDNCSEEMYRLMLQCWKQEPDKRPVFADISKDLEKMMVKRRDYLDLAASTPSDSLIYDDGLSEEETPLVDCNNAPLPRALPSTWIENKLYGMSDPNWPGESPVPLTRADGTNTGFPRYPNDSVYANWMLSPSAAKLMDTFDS

Work on `CC(C)(C)c1cc(NC(=O)Nc2ccc(C#Cc3ccc(OCCCN4CCOCC4)cc3)cc2)no1` yielded a Cmax [1] of 520 ng/mL, a clearance [2] of 1.35 mL/min/kg and a Tmax [3] of 4.98 min. For the same compound, the IC50 (DU-145) was over 10000 nM, the IC50 (MOLM-13) was 1 nM and the IC50 (NCI-H226) was over 10000 nM. It also gave an IC50 (U-251) of over 10000 nM, a Tmax [4] of 30 min and an IC50 [5] of 439 nM. The AUC(0-t) at 24 h [6] was 8310 ng·h/mL.

— ChEMBL document CHEMBL6134864, “Discovery of FLT3-ITD Inhibitor Clifutinib: A Novel Biphenylacetylene Urea Derivative in Clinical Trials for the Treatment of Relapsed/Refractory FLT3-ITD+ Acute Myeloid Leukemia” (J Med Chem, 2025)
